Experimental data published in patent publication US20040077028A1, “Assay for thrombocytopenia associated with administration of platelet GPIIb-IIIa receptor antagonists” (priority 2002, published 2004).
Positions of bridges follow the written chain, without caps; N, C: chain ends. Non-standard residues stand in square brackets, D forms with d. Residues, ends and D or L forms follow the SMILES beside them. hArg = N=C(N)NCCCC[C@H](N)C(=O)O; Mpa = O=C(O)CCS

How the values were obtained:
[1] = system: platelets (platelet surface P-selectin expression); assay: Platelet surface P-selectin expression by flow cytometry with GPIIb-specific antibody 5B12; type: cell-based; conditions: 5B12 (GPIIb-specific) instead of Y2/51; sub-maximal agonist; FIG. 2
Description: After a subject's blood sample has been incubated with a GPIIb-IIIa antagonist as described above, it is diluted (e.g., between 1:10 and 1:15) in autologous platelet-poor plasma (PPP). Platelet activation is assayed. Briefly, an aliquot (e.g., 20 μl) of dilute whole blood (or PRP)-GPIIb-IIIa receptor antagonist mix is incubated for 15-30 minutes at an appropriate temperature (for example, between about 22° C. and 37° C.) with sub-maximal concentration of a platelet agonist (e.g., in 10 μl). Examples of sub-maximal concentrations of platelet agonist are 0.5 μM ADP, 5.0 μM thrombin receptor activating peptide (TRAP), or 1.5 μM iso-TRAP. ADP is not generally used in the assay when the subject is receiving ADP receptor antagonist therapy. To identify platelets and to detect platelet activation, detection reagents are added.
The samples are generally analyzed using flow cytometry. Platelets are identified by light scatter characteristics and labeling of platelets using platelet-specific antibodies (e.g., antibodies that recognize CD41, CD61, CD42a, or CD42b). The binding of antibodies directed against indicators of platelet activation (e.g., anti-P-selectin, CD62P) is assayed using flow cytometry. […] The mean fluorescence intensity and the percent positive (above background) measurements are recorded.
In a second set of experiments, the monoclonal antibody 5B12 (DAKO) which is GPIIb-specific was used instead of Y2/51.

[2] = system: platelets (platelet P-selectin expression); conditions: platelet-rich plasma; 1 μg/ml eptifibatide; 0.5 μM ADP; absence of Mab IV.3; FIG. 3
Description: In these experiments, platelet-rich plasma was pre-incubated with FcγRII receptor blocking monoclonal antibody (Mab IV.3, 10 μg/ml). […] The mean fluorescence intensity of platelet P-selectin expression in the presence of 0.5 μM ADP was measured in the presence or absence of unconjugated Y2/51 and in the presence or absence of GPIIb-IIIa receptor antagonist, and with or without an FcγRII receptor blocking monoclonal antibody (Mab IV.3).

[3] = cited from earlier work
[4] = system: platelets (leukocyte-platelet aggregates) in citrate anticoagulated whole blood; assay: Neutrophil-platelet (leukocyte-platelet) aggregates by flow cytometry in whole blood with Y2/51; type: cell-based; conditions: abciximab 6.5 μg/ml, tirofiban 50 ng/ml, FITC conjugated Y2/51, FIG. 1
Description: In some embodiments, platelet activation is detected by assaying leukocyte-platelet aggregation. In such protocols, peripheral blood is drawn from a subject into a suitable anticoagulant, for example 3.2% sodium citrate anticoagulant or PPACK. […] ADP is not generally used in the assay when the subject is receiving ADP receptor antagonist therapy. […] The fluorescent conjugates of the reagents are labeled to be distinguishable from each other (e.g., fluorescein and phycoerythrin) so that both can be detected by flow cytometry. […] Samples are generally analyzed by flow cytometry. […] Leukocyte-platelet aggregates are identified using fluorescence histograms displaying fluorescence (above background) of platelet specific markers (e.g., CD41, CD61, CD42a or CD42b) from the gated monocyte, neutrophil or lymphocyte populations. Both the mean fluorescence intensity and the percent positive (above background) measurements are recorded. The relative amount of fluorescence (or percent positive above background) in the subject's sample is compared to a reference. An increase in the amount of fluorescence (or percent positive above background) in the subject's sample compared to the reference indicates an increased amount of platelet activation in the subject's sample. […]

[5] = within the patient population that develops an HACA response

| Compound | augmentation of agonist-induced platelet surface P-selectin expression in the presence of the GPIIb-IIIa antagonist with 5B12 [1] | augmentation by Y2/51 of ADP-mediated platelet activation (P-selectin) in the presence of the antagonist [2] | incidence of thrombocytopenia (platelet count of <100×10^9/L) ([3]; patients receiving the drug for a second time (re-administration)) [%] | incidence of profound thrombocytopenia (platelet count of <20×10^9/L) [3, 5] | incidence of thrombocytopenia (count of <100×10^9/L) [3, 5] [%] | augmentation by Y2/51 of agonist-induced leukocyte-platelet aggregation (neutrophil-platelet aggregates) in the presence of the GPIIb-IIIa antagonist [4] |
| --- | --- | --- | --- | --- | --- | --- |
| N=C(N)NCCCC[C@@H]1NC(=O)CCSSC[C@@H](C(N)=O)NC(=O)[C@@H]2CCCN2C(=O)[C@H](Cc2c[nH]c3ccccc23)NC(=O)[C@H](CC(=O)O)NC(=O)CNC1=O [eptifibatide] ([Mpa][hArg]GDWPC-NH2; disulfide 1-7) | not augmented | augments |  |  |  |  |
| abciximab | observed |  | 3.6 | less than 1% | 3.5 | did not augment |
| CCCCS(=O)(=O)N[C@@H](Cc1ccc(OCCCCC2CCNCC2)cc1)C(=O)O [tirofiban] | not augmented |  |  |  |  | augmented |
